Experimental data taken from paper PMC12567082, “Silver(I) Complexes Bearing S-Alkyl Thiosalicylic Acid Derivatives: DNA/BSA Binding and Antitumor Activity In Vitro and In Vivo” (Pharmaceutics, 2025).

Columns and labels:
CT-DNA [1] = assay: UV-Vis absorption titration with CT-DNA; format: binding, calf; conditions: ΔG = −RT lnKb
Experimental: All DNA-binding studies were conducted in 0.01 M phosphate-buffered saline (PBS, pH 7.40) at 25 °C. […] To eliminate absorbance from CT-DNA, identical amounts of DNA were added to both the test and reference solutions prior to spectral recording.
Intrinsic binding constants (Kb) were calculated using the equation to determine the DNA-binding affinities of the complexes (1):[DNA]/(εa − εf) = [DNA]/(εb − εf) + 1 [Kb(εb − εf)](1)
[DNA] represents the concentration of DNA; apparent extinction coefficient, εa, was calculated as the ratio of the observed absorbance to the concentration of the complex (Aobs/[complex]); and εb and εf correspond to the extinction coefficients of the complex in the fully bound and free forms, respectively. Kb was determined from the ratio of the slope to the intercept obtained from the corresponding linear plots.

CT-DNA [2] = assay: EB–CT-DNA fluorescence quenching; format: binding, calf; conditions: EB–CT-DNA 8.52 × 10^−5 M, PBS pH 7.4
Experimental: All samples were prepared in phosphate-buffered saline (PBS, pH 7.4). Stern–Volmer Equation (2) was used to interpret the fluorescence quenching data.

BSA = target: T1, BSA (Bos taurus, UniProt P02769); assay: BSA tryptophan fluorescence quenching; format: binding, bovine
T1 construct: purchased Sigma-Aldrich
Experimental: The protein binding study was carried out using tryptophan fluorescence quenching experiments with BSA. […] Fluorescence emission spectra were recorded between 300 and 500 nm, with excitation at 295 nm.
The quenching constant Ksv was determined based on the Stern–Volmer relationship, as described by Equation (3):I0/I = 1 + kqτ0[Q] = 1 + Ksv[Q](3)
In this equation, I0 and I refer to the fluorescence intensities of BSA measured without and with the quencher (complex), τ0 represents the average fluorescence lifetime of free BSA (∼10^−8 s), and [Q] indicates the quencher concentration.
Parameters such as association binding constant (K) and the number of binding sites per albumin (n) were obtained from Scatchard Equation (4):(ΔI/I0)/[Q] = nK − KΔI/I0(4)
To minimize inner filter, both intensities of fluorescence originating from excitation and emission light absorption and re-absorption were corrected by employing Equation (5); Icor and Iobs are the corrected and observed fluorescence intensities, respectively, and Aex and Aem represent the absorbance of the metal complex at the excitation and emission wavelengths, respectively.Icor = Iobs · […]^(Aex + Aem)/2(5)

[3] = test system: human fibroblast cell lines (MRC-5); assay: MTT assay MRC-5; format: cell-based
Experimental: Mouse breast cancer (4T1), human breast cancer (MDA-MB-468), mouse colon cancer (CT26), human colon cancer (HCT-116), mouse lung cancer (LLC1), human lung cancer (A549), mouse mesenchymal stem cells (mMSC), and human fibroblast cell lines (MRC-5) were used in this study and were consistently cultured in complete Dulbecco’s Modified Eagle Medium (DMEM) (Sigma-Aldrich, St. Louis, MO, USA) in incubator (5% CO2) under standard conditions. Complete DMEM was Dulbecco’s Modified Eagle Medium supplemented with 10% fetal bovine serum (FBS), 1 mmol/L penicillin–streptomycin, 1 mmol/L mixed nonessential amino acids, and 2 mmol/L L-glutamine (Sigma-Aldrich, St. Louis, MO, USA). All cancer cell lines and MRC-5 cell line were obtained from American Type Culture Collection (ATCC, Manassas, VA, USA), but mMSC was manufactured by Gibco (Middlesex County, MA, USA).
In 96-well microplates, we seeded cancer and non-cancer cells, more exactly 5 × 10^3 cells per well in 100 μL of complete DMEM (Sigma-Aldrich, St. Louis, MO, USA). […] Tested concentration range for all metal-based substances was 3.9–500 μM. After incubation with MTT solution (5 mg/mL; pH 7.2) for 4 h, optical density was determined using Zenyth 3100 microplate multimode detector (Salzburg, Austria). All experiments were performed three times, each in triplicate, and the IC50 values as well as selectivity indexes (IC50 for mMSC or MRC-5/IC50 for mouse or human cancer cells) were calculated.

4T1 cells [4] = assay: Colony formation assay; format: cell-based, mouse; conditions: 0.5 µM, 14 days
Experimental: Cancer 4T1 cells were seeded in a six-well plate (500 cells per well) and incubated with C3 (0.5 µM) or DMEM only for 14 days. After fixation, the colonies were stained using crystal violet.

4T1 cells [5] = assay: Analysis of cell death (Annexin V/PI) in 4T1; format: cell-based, mouse; conditions: 0.5 µM, 24 h, vs untreated
Experimental: 4T1 cells were treated with 0.5 µM of C3 or grown in DMEM only (control 4T1 cells) for 24 h and stained with Annexin-V-FITC and propidium iodide (PI) (BD Pharmingen, San Diego, CA, USA) as previously described. Quantification of cellular death was measured using FACSCalibur Flow Cytometer (BD Biosciences, San Jose, CA, USA) and FlowJo software (version 10.7.2; Tree Star Inc. Ashland, OR, USA).

T1 sequence (P02769 25-607): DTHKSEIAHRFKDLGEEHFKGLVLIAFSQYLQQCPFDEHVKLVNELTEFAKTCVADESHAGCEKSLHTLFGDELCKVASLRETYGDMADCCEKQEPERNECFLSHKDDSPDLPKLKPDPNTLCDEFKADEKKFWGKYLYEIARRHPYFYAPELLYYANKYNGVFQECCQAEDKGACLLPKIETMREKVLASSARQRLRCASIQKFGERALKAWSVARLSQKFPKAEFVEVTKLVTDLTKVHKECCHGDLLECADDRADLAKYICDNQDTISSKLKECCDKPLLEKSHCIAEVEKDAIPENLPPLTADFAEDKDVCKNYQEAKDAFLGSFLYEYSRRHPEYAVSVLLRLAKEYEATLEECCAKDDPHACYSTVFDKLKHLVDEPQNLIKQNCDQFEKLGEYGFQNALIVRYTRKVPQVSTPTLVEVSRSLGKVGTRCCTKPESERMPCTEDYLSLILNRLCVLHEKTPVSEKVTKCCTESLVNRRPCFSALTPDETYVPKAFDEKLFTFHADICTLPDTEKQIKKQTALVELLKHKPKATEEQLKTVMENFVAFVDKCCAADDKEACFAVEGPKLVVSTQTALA

Structure (SMILES): CCCSc1ccccc1C(=O)[O][Ag].CCCSc1ccccc1C(=O)[O][Ag] [C3, [Ag2(S-propyl-thiosal)2]]
- ΔG (Gibbs free energy) (CT-DNA [1]): -7.29 kcal/mol
- Ksv EB (Stern–Volmer constant) (CT-DNA [2]): (1.4 ± 0.1) × 10^4 M^−1
- kq (quenching rate constant) (BSA; BSA 2 µM): (9.6 ± 0.1) × 10^12 M^−1 s^−1
- Ksv (Stern–Volmer constant) (BSA; BSA 2 µM, λex 295 nm): (9.6 ± 0.1) × 10^4 M^−1
- K (binding constant) (BSA; Scatchard equation): (1.1 ± 0.1) × 10^5 M^−1
- n (number of binding sites) (BSA; Scatchard equation): 1.1
- IC50 ([3]; MRC-5, 24 h): 38.1 ± 1.13 µM
- IC50 ([3]; MRC-5, 48 h): 43.3 ± 1.1 µM
- 4T1 colony formation (4T1 cells [4]): almost total inhibition
- percentage of early apoptotic cells (4T1 cells [5]): No difference
- percentage of late apoptotic 4T1 cells (AnnV+/PI+) (4T1 cells [5]): increased
